Patent US9623000B2, “Compositions and methods for treating inflammatory disorders” (priority 2008, dated 2017)
Values joined by “and” are separate entries in the source; they are usually repeats but may differ in a detail not shown here. Equal entries are not always repeated. Marks after values point to notes of the source that are not given here.

Columns and labels:
Assay type in all cases: in vivo, Mice/Balb/c
[1] = tested on: croton oil induced ear edema; experiment: Croton oil induced ear swelling, 3 hours post sensitization (Example 1); conditions: Hydrocortisone 600 nmol/ear; for % of Ear Thickness Inhibition (inhibition of ear swelling/edema vs Vehicle) / ear swelling (difference between the inflamed and intact ear thickness): 3 hours post croton oil; for % of Ear Thickness Inhibition (inhibition of ear swelling/edema vs Vehicle) / Mean Group Ear Swelling (mm) 3 Hours Post Croton Oil MEAN: topical 1 hour prior to and 2 hours post sensitization; for % of Ear Thickness Inhibition (inhibition of ear swelling/edema vs Vehicle): 2 mg/ml or 5 mg/ml (PEA, CBD); for Mean Group Ear Swelling (mm) 3 Hours Post Croton Oil MEAN: Amitriptyline, Topiramate, Moclobimide 2 mg/ml; for Mean Group Ear Swelling (mm) 3 Hours Post Croton Oil MEAN / ear swelling (difference between the inflamed and intact ear thickness): PEA, CBD 5 mg/ml; for ear swelling (difference between the inflamed and intact ear thickness): MEAN±SEM
Experimental: A study was undertaken in order to evaluate the effect of topical preparations of various test items (TI) and TI combined with Croton oil on ear swelling. Ear thickness was measured before croton oil induced ear swelling and 3 hours post ear edema induction. The various TIs were applied topically 1 hour prior to ear edema sensitization and 2 hours post ear edema sensitization. The difference in ear thickness of the intact ear was subtracted from the ear thickness of the inflamed ear. This value is defined as “ear swelling”.
Species/Strain: Mice/Balb/c
Prior to sensitization animals were anesthetized. Ear thickness was measured 24 hours prior to croton oil sensitization; this measurement served as a baseline. On sensitization day, the animals were anesthetized using Ketamine and Xylazine formulation. Then, the animals were administered with TI topically. One hour later the animals were introduced to croton oil sensitization (50 μL). Two hours post croton oil sensitization the animals were administered with TI again. Three hours post croton oil sensitization the ear thickness of the animals were measured again.
TIs were administered twice, the first dose was 1 hour prior to croton oil sensitization and the second time was 2 hours post croton oil sensitization. All TIs were dissolved in 10% Ethanol and were applied topically on the surface of the sensitized ear.
Determination of individual body weights of animals was made one day before sensitization phase. A single person was responsible for ear thickness measurement throughout the entire study. The ear thickness of both left and right ears was measured using analogue calipers (Instrumentation 0.01 mm L-01) on 2 occasions: 24 hours prior to croton oil sensitization, and 3 hours post croton oil sensitization.
All data are presented in MEAN±SEM. T-test, two tailed, unpaired was applied to all data. P value was considered significant if p<0.05.
Ear thickness was measured before Croton oil induced ear sensitization (baseline) and 3 hours post ear edema induction. Treatment with various TI was applied topically 1 hour prior to sensitization and 2 hours post induction. The difference in ear thickness of the intact ear was subtracted from the ear thickness measured of the inflamed ear. This value was referred to as ear swelling.

[2] = tested on: croton oil induced ear edema; experiment: Croton oil induced ear edema, 6 hours post sensitization (Example 2)
Description: A study was undertaken in order to evaluate the effect of topical preparations of Hydrocortisone, Betamethasone and PEA at various concentrations (as single agents and in various combinations) on ear edema in mice. […] The difference in ear thickness of the intact ear was subtracted from the ear thickness of the inflamed ear. This value is defined as “ear swelling”.

[3] = tested on: croton oil induced ear edema; experiment: Croton oil induced ear edema, 6 and 9 hours post sensitization (Example 3); conditions: PEA 1%; for activity in inhibiting ear swelling vs. Vehicle: Betamethasone 4 μg/25 μl per ear; for Mean Left Ear Delta Thickness, Delta + 9 h vs baseline / Mean Left Ear Delta thickness, Delta + 6 h vs baseline / Mean Left Ear Thickness (mm) Day 0 (6 h post sensitization) / Mean Left Ear Thickness (mm) Day 0 (9 h post sensitization): Betamethasone EDmax 4 μg/25 μl per ear; for Mean Left Ear Thickness (mm) Day 0 (6 h post sensitization) / Mean Left Ear Thickness (mm) Day 0 (9 h post sensitization): topical 25 μl per ear prior to sensitization
Experimental: A study was undertaken in order to determine the effect of topical application of a combined preparation of Betamethasone and PEA on ear edema in mice. Ear thickness was measured before croton oil induced ear swelling and 6 and 9 hours post ear edema induction. […]
The difference in ear thickness of the intact ear was subtracted from the ear thickness of the inflamed ear. This value is defined as “ear swelling”.

[4] = steroid alone at ED50: Hydrocortisone 55 μg/25 μl per ear, Betamethasone 1 μg/25 μl per ear
[5] = steroid alone at EDmax: Hydrocortisone 200 μg/25 μl per ear, Betamethasone 4 μg/25 μl per ear
[6] = topical, steroid alone at calculated ED50: Hydrocortisone 55 μg/25 μl per ear, Betamethasone 1 μg/25 μl per ear
[7] = topical, steroid alone at calculated EDmax: Hydrocortisone 200 μg/25 μl per ear, Betamethasone 4 μg/25 μl per ear

`CN(C)CCC=C1c2ccccc2CCc2ccccc21` [Amitriptyline, amitriptyline] was tested, and the “% of Ear Thickness Inhibition (inhibition of ear swelling/edema vs Vehicle)” value [1] was 62% and the “Mean Group Ear Swelling (mm) 3 Hours Post Croton Oil MEAN” value (shortened to “Mean Group Ear Swelling”) [1] was 0.248* mm.
For `C[C@H]1C[C@H]2[C@@H]3CCC4=CC(=O)C=C[C@]4(C)[C@@]3(F)[C@@H](O)C[C@]2(C)[C@@]1(O)C(=O)CO` [Betamethasone, betamethasone], the “Mean Left Ear Delta thickness, Delta + 6 h vs baseline” value [2, 4] was 0.043, the “Mean Left Ear Delta thickness, Delta + 6 h vs baseline” value [2, 5] was 0.031* and the “Left Ear Thickness (mm) Study Day 0 (6 H post sensitization)” value [2, 6] was 0.30±0.008 mm. For the same compound, the “Left Ear Thickness (mm) Study Day 0 (6 H post sensitization)” value ([2]; topical, steroid alone at calculated ED50: Hydrocortisone 55 μg/25 μl per ear, Betamethasone 1 μg/25 μl per ear, listed as Beta.) was 0.30 * mm, the “Left Ear Thickness (mm) Study Day 0 (6 H post sensitization)” value [2, 7] was 0.29±0.005 mm and the “Left Ear Thickness (mm) Study Day 0 (6 H post sensitization)” value ([2]; topical, steroid alone at calculated EDmax: Hydrocortisone 200 μg/25 μl per ear, Betamethasone 4 μg/25 μl per ear, listed as Beta) was 0.29 ** mm. For the same compound, the “activity in inhibiting ear swelling vs. Vehicle” value ([3]; 6 hours post sensitization) was “active”, the “activity in inhibiting ear swelling vs. Vehicle” value ([3]; 9 hours post sensitization) was “not active” and the “Mean Left Ear Delta Thickness, Delta + 9 h vs baseline” value [3] was 0.092#. The “Mean Left Ear Delta thickness, Delta + 6 h vs baseline” value [3] was 0.036**, the “Mean Left Ear Thickness (mm) Day 0 (6 h post sensitization)” value [3] was 0.27*** mm and the “Mean Left Ear Thickness (mm) Day 0 (9 h post sensitization)” value [3] was 0.33 mm.
With `C=C(C)[C@@H]1CCC(C)=C[C@H]1c1c(O)cc(CCCCC)cc1O` [CBD, cannabidiol] the “ear swelling (difference between the inflamed and intact ear thickness)” value [1] was 0.020±0.010 mm, the “% of Ear Thickness Inhibition (inhibition of ear swelling/edema vs Vehicle)” value [1] was 72% and the “Mean Group Ear Swelling” value [1] was 0.240* mm.
In the case of `C[C@]12CCC(=O)C=C1CC[C@@H]1[C@@H]2[C@@H](O)C[C@@]2(C)[C@H]1CC[C@]2(O)C(=O)CO` [Hydrocortisone, hydrocortisone], the “activity compared to vehicle in reducing ear thickness / ear edema” value ([2]; 6 hours post sensitization, Hydrocortisone 55 and 200 μg/25 μl per ear, Betamethasone 1 and 4 μg/25 μl per ear (calculated ED50 and EDmax)) was “not active”, the “Mean Left Ear Delta thickness, Delta + 6 h vs baseline” value [2, 4] was 0.060 and the “Mean Left Ear Delta thickness, Delta + 6 h vs baseline” value [2, 5] was 0.054. The “Left Ear Thickness (mm) Study Day 0 (6 H post sensitization)” value [2, 6] was 0.32 mm, the “Left Ear Thickness (mm) Study Day 0 (6 H post sensitization)” value [2, 7] was 0.31 mm and the “ear swelling (difference between the inflamed and intact ear thickness)” value [1] was 0.043±0.003 mm. The “% of Ear Thickness Inhibition (inhibition of ear swelling/edema vs Vehicle)” value [1] was 40% and the “Mean Group Ear Swelling” value [1] was 0.243 mm.
In the case of `O=C(NCCN1CCOCC1)c1ccc(Cl)cc1` [Moclobimide, moclobemide], the “% of Ear Thickness Inhibition (inhibition of ear swelling/edema vs Vehicle)” value [1] was 52% and the “Mean Group Ear Swelling” value [1] was 0.265 mm.
With `CCCCCCCCCCCCCCCC(=O)NCCO` [PEA, N-(2-hydroxyethyl)hexadecanamide] the “Mean Left Ear Delta thickness, Delta + 6 h vs baseline” value ([2]; PEA 0.5% (alone or + Hydrocortisone/Betamethasone ED50)) was 0.135, the “Mean Left Ear Delta thickness, Delta + 6 h vs baseline” value ([2]; PEA 1% (alone or + Hydrocortisone/Betamethasone ED50)) was 0.031* and the “reducing ear thickness vs. Vehicle” value ([2]; PEA 1% topical, 6 hours post sensitization) was “approximately 50%”. The “Mean Left Ear Delta thickness, Delta + 6 h vs baseline” value ([2]; PEA 5% (alone or + Hydrocortisone/Betamethasone ED50)) was 0.062, the “Left Ear Thickness (mm) Study Day 0 (6 H post sensitization)” value ([2]; topical 25 μl per ear 0.5 hour prior to sensitization, PEA 0.5% (alone or + Hydrocortisone 55 μg/25 μl or Betamethasone 1 μg/25 μl, ED50)) was 0.38 mm and the “Left Ear Thickness (mm) Study Day 0 (6 H post sensitization)” value ([2]; topical 25 μl per ear 0.5 hour prior to sensitization, PEA 1% (alone or + Hydrocortisone 55 μg/25 μl or Betamethasone 1 μg/25 μl, ED50)) was 0.29±0.004 mm and 0.29 ** mm. The “Left Ear Thickness (mm) Study Day 0 (6 H post sensitization)” value ([2]; topical 25 μl per ear 0.5 hour prior to sensitization, PEA 5% (alone or + Hydrocortisone 55 μg/25 μl or Betamethasone 1 μg/25 μl, ED50)) was 0.32 mm, the “ear swelling (difference between the inflamed and intact ear thickness)” value [1] was 0.035±0.012 mm and the “% of Ear Thickness Inhibition (inhibition of ear swelling/edema vs Vehicle)” value [1] was 52%. The “Mean Group Ear Swelling” value [1] was 0.268 mm, the “activity in inhibiting ear swelling vs. Vehicle” value ([3]; 6 hours post sensitization) was “significant activity” and the “activity in inhibiting ear swelling vs. Vehicle” value ([3]; 9 hours post sensitization) was “not active”. For the same compound, the “Mean Left Ear Delta Thickness, Delta + 9 h vs baseline” value [3] was 0.147, the “Mean Left Ear Delta thickness, Delta + 6 h vs baseline” value [3] was 0.056* and the “Mean Left Ear Thickness (mm) Day 0 (6 h post sensitization)” value [3] was 0.30** mm. For the same compound, the “Mean Left Ear Thickness (mm) Day 0 (9 h post sensitization)” value [3] was 0.39 mm.
`CC1(C)O[C@@H]2[C@@H](CO[C@@]3(COS(N)(=O)=O)OC(C)(C)O[C@@H]23)O1` [Topiramate, topiramate] was tested, and the “% of Ear Thickness Inhibition (inhibition of ear swelling/edema vs Vehicle)” value [1] was 63% and the “Mean Group Ear Swelling” value [1] was 0.243 mm.
